Assay results: US11407719B2, “Anti-inflammatory agents” (Resverlogix Corp., priority 2009, dated 2022)

What was measured:
[1] = tested on: VCAM-1 mRNA; test: Quantification of hVCAM mRNA; type: cell-based, human; parameters: key: Active: an active compound is one that causes a ≥20% inhibition in VCAM-1 mRNA at a concentration less than or equal to 10 μM; -1 mRNA at a concentration less than or equal to 10 μM; settings: VCAM-1 mRNA by real-time PCR; HUVECs, 1 h pretreatment, tumor necrosis factor-α stimulation 24 h; concentration ≤10 μM
Description: In this example, […] in tissue culture cells was quantitated to measure the transcriptional inhibition of hVCAM when treated with a compound of the invention.
Human umbilical vein endothelial cells (HUVECs) were plated in a 96-well plate (4.0×10^3 cells/well) in 100 μL EGM media and incubated for 24 h prior to the addition of the compound of interest. The cells were pretreated for 1 h with the test compound prior to stimulation with tumor necrosis factor-α. The cells were incubated for an additional 24 h before the cells were harvested. At time of harvest, the spent media was removed from the HUVECs and rinsed in 200 μL PBS. Cell lysis solution (70 μL) was then added the cells in each well and incubated for ˜5-10 min at room temperature, to allow for complete cell lysis and detachment. mRNA was then prepared using the “mRNA Catcher PLUS plate” (Invitrogen), according to the protocol supplied. After the last wash, as much wash buffer as possible was aspirated without allowing the wells to dry. Elution buffer (E3, 70 μL) was then added to each well. mRNA was then eluted by incubating the mRNA Catcher PLUS plate with elution buffer for 5 min at 68° C. and then immediately placing the plate on ice.
(§1) The eluted mRNA so isolated was then used in a one-step quantitative real-time PCR reaction, using components of the Ultra Sense Kit together with Applied Biosystems primer-probe mixes. Real-time PCR data was analyzed, normalizing the Ct values for hVCAM to an internal control, prior to determining the fold induction of each unknown sample, relative to the control.

[2] = tested on: hIL-6 mRNA; test: Quantification of hIL-6 mRNA; type: cell-based, human; parameters: key: Active: an active compound is one that causes a ≥20% inhibition in IL-6 mRNA at a concentration less than or equal to 10 μM; settings: IL-6 mRNA by real-time PCR; differentiated U937 cells, 1 h pretreatment, lipopolysaccharide stimulation 3 h; concentration ≤10 μM
Description: In this example, […] in tissue culture cells was quantitated to measure the transcriptional inhibition of hIL-6 when treated with a compound of the invention.
A human leukemic monocyte lymphoma cell line (U937) was plated (3.2×10^5 cells per well) in a 96-well plate in 100 μL RPMI-1640, and differentiated for 3 days prior to the addition of the compound of interest. The cells were pretreated for 1 h with the test compound prior to stimulation with lipolysaccharide from Escherichia coli. The cells were incubated at 37° C. for 3 h before the cells were harvested. At time of harvest, the spent media was removed from the cells and the cells were rinsed in 200 μL PBS. Cell lysis solution (70 μL) was added the cells in each well and incubated for 5-10 min at room temperature, to allow for complete cell lysis and detachment. mRNA was then prepared using the “mRNA Catcher PLUS plate” (Invitrogen), according to the protocol supplied. After the last wash, as much wash buffer as possible was aspirated without allowing the wells to dry. Elution buffer (E3, 70 μL) was then added to each well. mRNA was then eluted by incubating the mRNA Catcher PLUS plate with Elution Buffer for 5 min at 68° C. and then immediately placing the plate on ice.
as §1, with “mRNA” for “mRNA so”, “hIL-6” for “hVCAM”

SMILES	Inhibition of VCAM-1 expression [1]	Inhibition of IL-6 expression [2]
COc1cc(OC)c2c(=O)[nH]c(-c3ccc(N4CCCNCC4)cc3)nc2c1 [2-(4-(1,4-Diazepan-1-yl)phenyl)-5,7-dimethoxyquinazolin-4(3H)-one]	Active	Active
COc1cc(OC)c2c(=O)[nH]c(-c3ccc(N4CCCN(C)CC4)cc3)nc2c1 [5,7-Dimethoxy-2-(4-(4-methyl-1,4-diazepan-1-yl)phenyl)quinazolin-4(3H)-one]	Active	Active
COc1cc(OC)c2c(=O)[nH]c(-c3cc(C)c(OCCN4CCOCC4)c(C)c3)cc2n1 [7-(3,5-dimethyl-4-(2-morpholinoethoxy)phenyl)-2,4-dimethoxy-1,6-naphthyridin-5(6H)-one]	Active	Active
COc1cc(OC)c2c(=O)[nH]c(-c3ccc(N4CCN(C(=O)c5cc(Cl)sc5Cl)CC4)cc3)nc2c1 [2-(4-(4-(2,5-Dichlorothiophene-3-carbonyl)piperazin-1-yl)phenyl)-5,7-dimethoxyquinazolin-4(3H)-one]	Active	Active
COc1cc(OC)c2c(=O)[nH]c(-c3ccc(N4CCC(NC(=O)c5ccccc5)CC4)cc3)nc2c1 [N-(1-(4-(5,7-Dimethoxy-4-oxo-3,4-dihydroquinazolin-2-yl)phenyl)piperidin-4-yl)benzamide]	Active	Active
COc1cc(OC)c2c(=O)[nH]c(-c3ccc(N4CCN(C(=O)CC(F)(F)F)CC4)cc3)nc2c1 [5,7-Dimethoxy-2-(4-(4-(3,3,3-trifluoropropanoyl)piperazin-1-yl)phenyl)quinazolin-4(3H)-one]	Active	Active
COc1cc(OC)c2c(=O)[nH]c(-c3ccc(Nc4cccnc4)cc3)nc2c1 [5,7-Dimethoxy-2-(4-(pyridin-3-ylamino)phenyl)quinazolin-4(3H)-one]	Active	Active
COc1cc(OC)c2c(=O)[nH]c(-c3cc(C)c(OCCN4C(=O)c5ccccc5C4=O)c(C)c3)nc2c1 [2-(2-(4-(5,7-dimethoxy-4-oxo-3,4-dihydroquinazolin-2-yl)-2,6-dimethylphenoxy)ethyl)isoindoline-1,3-dione]	Active	Active
COCCOc1cc(OC)cc2nc(-c3cc(C)nc(C)c3)[nH]c(=O)c12 [2-(2,6-Dimethylpyridin-4-yl)-7-methoxy-5-(2-methoxyethoxy)quinazolin-4(3H)-one]	Inactive	Active
COc1cc(OC)c2c(=O)[nH]c(-c3ccc(N4C[C@@H](C)N(C(C)=O)[C@@H](C)C4)cc3)nc2c1 [2-(4-((3R,5S)-4-Acetyl-3,5-dimethylpiperazin-1-yl)phenyl)-5,7-dimethoxyquinazolin-4(3H)-one]	Active	Active
COc1cc(OC)c2c(=O)[nH]c(-c3ccc(N4CCN(C(=O)c5ccccc5)CC4)cc3)nc2c1 [2-(4-(4-Benzoylpiperazin-1-yl)phenyl)-5,7-dimethoxyquinazolin-4(3H)-one]	Active	Active
COc1cc(OC)c2c(=O)[nH]c(-c3cc(C)c(OC[C@@H]4CCC(=O)N4)c(C)c3)nc2c1 [(S)-2-(3,5-Dimethyl-4-((5-oxopyrrolidin-2-yl)methoxy)phenyl)-5,7-dimethoxyquinazolin-4(3H)-one]	Active	Active
COc1cc(OC)c2c(=O)[nH]c(-c3cc(C)c(OCCN4CCCCC4)c(C)c3)nc2c1 [2-(3,5-Dimethyl-4-(2-(piperidin-1-yl)ethoxy)phenyl)-5,7-dimethoxyquinazolin-4(3H)-one]	Active	Active
